Read-outs that look alike come from different tables or passages of the source.
What was measured:
[1] = tested on: TNFα; assay: IRAK4 Monocyte TNFα Cell Based Assay; set-up: species or system human; settings: read-out: EC50MONO TNF HTRF
Protocol: IRAK4 Monocyte TNFα Cell Based Assay Procedure:
The cell suspension was then plated at a density of 5,000 cells/well onto black 384 well Greiner clear bottom plates. Plates were pre-spotted with test compounds and serially diluted in DMSO where 40 nL/well were delivered using the Echo 550 acoustic liquid dispenser (Labcyte®) for a final DMSO concentration of 0.1%. Plated cells were treated with compound for 1 hour at 37° C. Cells were then stimulated with 50 pg/ml of LPS (Sigma) excluding outside columns of plate used for unstimulated cell control wells. Cells were incubated for an additional 4 hours at 37° C. Cells were then spun out of the media and 5μl of sample were taken and analyzed for total TNFα content using the TR-FRET Human TNFα detection system (CisBio). This system utilizes two labeled antibodies (cryptate and XL665) that bind to two different epitopes of the TNFα molecule and produce FRET signal proportional to the concentration of TNFα in the sample. Detection antibodies are mixed 50:50 and 5 μL were dispensed into each well. Plates were covered with clear seals and incubated at room temp overnight. […] Percent of control was calculated as follows: % Control=100×(RatioSample−Ratio0% Stimulation)/(Ratio100% Stimulation−Ratio0% Stimulation) where unstimulated cells (0% stimulation) were the negative control and stimulated cells (100% stimulation) were used as the positive control.

[2] = biological target: IRAK4 enzyme (Homo sapiens (Human), UniProt Q9NWZ3); assay: IRAK4 Biochemical Assay (TR-FRET, STK1 KinEASE)
Protocol: IRAK4 enzyme (Carna Biosciences, Chuo-ku, Kobe, Japan) activity was measured by detecting phosphorylated peptide substrate formation using an antibody against the phosphorylated peptide substrate. This is a time-resolved fluorescence resonance energy transfer (TR-FRET) immunoassay, based on the STK1 KinEASE Assay (Cisbio, Bedford, Mass.). The assay was designed as a simple two-step, endpoint assay (a 5 μl enzyme reaction followed by 5 μl stop and detect Solution) performed in ProxiPlate-384 Plus plates (Perkin Elmer, Waltham, Mass.). […] Compounds diluted in DMSO were spotted into 384 well plates using a Labcyte® Echo 550 Liquid Handling System prior to addition of IRAK4 enzyme and peptide substrate. Reaction solutions were delivered using a Multi-Flo (Bio-Tek Instruments). The enzyme and peptide solution was incubated with compound for 15 minutes at room temp before the reaction was initiated by the addition of ATP. The standard 5 μl reaction mixture contained 500 μM ATP, 2 μM peptide (STK1 Peptide), 0.75 nM of IRAK4 in reaction buffer (50 mM HEPES, pH 7.0, 0.02% NaN3, 0.01% BSA, 0.1 mM Orthovanadate, 5 mM MgCl2, 0.025% NP-40, 1 mM DTT). After 120 min of incubation at room temperature, 5 μl of Stop and Detect Solution (1:100 Cryptate labeled anti-phosphorylated peptide antibody solution and 125 nM Tracer in a 50 mM HEPES pH 7.0 detection buffer containing sufficient EDTA) was added. The plate was then further incubated for 60 minutes at room temperature and read on Envision 2103 Multilabeled reader (PerkinElmer) with excitation/emission/FRET emission at 340 nm/615 nm/665 nm, respectively. Fluorescence intensities at 615 nm and 665 nm emission wavelengths were expressed as a ratio (665 nm/615 nm). Percentage of inhibition was calculated as below: % Inhibition=100×(RatioSample−Ratio0% Inhibition)/(Ratio100% Inhibition−Ratio0% Inhibition)
The 0% inhibition value comes from control wells lacking inhibitor.

[3] = Homo sapiens, Monocyte, human monocytes, second part of Table 2 (compounds 33-343), unit inferred
[4] = human monocytes, second part of Table 2 (compounds 33-343), unit inferred
[5] = second part of Table 2 (compounds 33-343), unit inferred, read-out: IC50 IRAK4-HTBS

IRAK4 enzyme, sequence (Q9NWZ3 whole entry): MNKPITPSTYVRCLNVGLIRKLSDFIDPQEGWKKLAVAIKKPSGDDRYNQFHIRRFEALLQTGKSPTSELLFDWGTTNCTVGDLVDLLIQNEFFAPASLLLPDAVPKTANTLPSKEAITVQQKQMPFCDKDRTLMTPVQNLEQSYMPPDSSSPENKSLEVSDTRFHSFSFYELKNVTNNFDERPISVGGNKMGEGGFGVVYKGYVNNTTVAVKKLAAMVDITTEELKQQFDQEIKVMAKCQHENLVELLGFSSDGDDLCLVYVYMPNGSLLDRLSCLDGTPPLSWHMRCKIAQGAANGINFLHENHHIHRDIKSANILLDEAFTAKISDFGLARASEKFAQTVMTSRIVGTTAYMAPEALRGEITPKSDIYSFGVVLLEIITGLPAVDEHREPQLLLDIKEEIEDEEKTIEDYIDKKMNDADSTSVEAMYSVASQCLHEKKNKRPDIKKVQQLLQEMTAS

Molecule	EC50 [1, 3] [nM]	IC50 [2] [nM]	EC50 [1, 4] [nM]	IC50 [2, 5] [nM]	EC50 ([1]; Homo sapiens, Monocyte) [nM]
CC(=O)NC1CCC2(CC1)CN(c1nnc(-c3cnc(-c4ccc5cc(C#N)cnn45)cc3NC3COC3)s1)C2 [Example 78, N-(2-(5-(6-(3-cyanopyrrolo[1,2-b]pyridazin-7-yl)-4-(oxetan-3-ylamino)pyridin-3-yl)-1,3,4-thiadiazol-2-yl)-2-azaspiro[3.5]nonan-7-yl)acetamide]	8.9	0.85			
CC(=O)N[C@@H]1CN(c2nnc(-c3cnc(-c4ccc5cc(C#N)cnn45)cc3NC(C)C)s2)CC12CC2 [Compound 324, (S)-N-(5-(5-(6-(3-cyanopyrrolo[1,2-b]pyridazin-7-yl)-4-(isopropylamino)pyridin-3-yl)-1,3,4-thiadiazol-2-yl)-5-azaspiro[2.4]heptan-7-yl)acetamide]	19.1	0.99			
CC(C)Nc1cc(-c2ccc3cc(C#N)cnn23)ncc1-c1nnc(N2CC[C@@](C)(O)[C@@H](F)C2)s1 [Example 186, 7-(5-(5-((3S,4R)-3-fluoro-4-hydroxy-4-methylpiperidin-1-yl)-1,3,4-thiadiazol-2-yl)-4-(isopropylamino)pyridin-2-yl)pyrrolo[1,2-b]pyridazine-3-carbonitrile]	8.4	0.95			
CC(C)Nc1cc(-c2ccc3cc(C#N)cnn23)ncc1-c1nnc(C2CCN(C3COC3)CC2)s1 [Example 138, 7-(4-(isopropylamino)-5-(5-(1-(oxetan-3-yl)piperidin-4-yl)-1,3,4-thiadiazol-2-yl)pyridin-2-yl)pyrrolo[1,2-b]pyridazine-3-carbonitrile]	15	0.61			
CC(C)Nc1cc(-c2ccc3cc(C#N)cnn23)ncc1-c1nnc(N2CC(N3CCC(F)(F)C3)C2)s1 [Compound 328, 7-(5-(5-(3-(3,3-difluoropyrrolidin-1-yl)azetidin-1-yl)-1,3,4-thiadiazol-2-yl)-4-(isopropylamino)pyridin-2-yl)pyrrolo[1,2-b]pyridazine-3-carbonitrile]	80.5	1.02			
N1-((1R,5S,8s)-3-(5-(6-(3-cyanopyrrolo[1,2-b]pyridazin-7-yl)-4-(isopropylamino)pyridin-3-yl)-1,3,4-thiadiazol-2-yl)-3-azabicyclo[3.2.1]octan-8-yl)-N2-(dimethyl(oxo)-16-sulfanylidene)oxalamide [Example 103]			1.4	0.51	
CC(=O)NC12CCC(c3nnc(-c4cnc(-c5ccc6cc(C#N)cnn56)cc4NC4COC4)s3)(C1)C2 [Compound 334, N-(4-(5-(6-(3-cyanopyrrolo[1,2-b]pyridazin-7-yl)-4-(oxetan-3-ylamino)pyridin-3-yl)-1,3,4-thiadiazol-2-yl)bicyclo[2.1.1]hexan-1-yl)acetamide]	98.9	2.41			
CC(=O)N[C@H]1CC[C@@H](c2nnc(-c3cnc(-c4ccc5cc(C#N)cnn45)cc3NC(C)C)s2)OC1 [Example 84, N-((3S,6S)-6-(5-(6-(3-cyanopyrrolo[1,2-b]pyridazin-7-yl)-4-(isopropylamino)pyridin-3-yl)-1,3,4-thiadiazol-2-yl)tetrahydro-2H-pyran-3-yl)acetamide]	8.6	0.47			
CC(C)Nc1cc(-c2ccc3cc(C#N)cnn23)ncc1-c1nnc(N2CCN(C3COC3)CC2)s1 [Example 304, 7-(4-(isopropylamino)-5-(5-(4-(oxetan-3-yl)piperazin-1-yl)-1,3,4-thiadiazol-2-yl)pyridin-2-yl)pyrrolo[1,2-b]pyridazine-3-carbonitrile]	9.8	0.54			
CC(=O)N1CC2CC(C1)N2c1nnc(-c2cnc(-c3ccc4cc(C#N)cnn34)cc2NC(C)C)s1 [Compound 261, 7-(5-(5-(3-acetyl-3,6-diazabicyclo[3.1.1]heptan-6-yl)-1,3,4-thiadiazol-2-yl)-4-(isopropylamino)pyridin-2-yl)pyrrolo[1,2-b]pyridazine-3-carbonitrile]		0.73			18.3
(S)-1-(5-(6-(3-cyanopyrrolo[1,2-b]pyridazin-7-yl)-4-(oxetan-3-ylamino)pyridin-3-yl)-1,3,4-thiadiazol-2-yl)-N-methylpyrrolidine-2-carboxamide [Compound 332]			435	1.61	
CC(=O)N1CCC2(CC1)CN(c1nnc(-c3cnc(-c4ccc5cc(C#N)cnn45)cc3NC3CCOCC3)s1)C2 [Example 76, 7-(5-(5-(7-acetyl-2,7-diazaspiro[3.5]nonan-2-yl)-1,3,4-thiadiazol-2-yl)-4-((tetrahydro-2H-pyran-4-yl)amino)pyridin-2-yl)pyrrolo[1,2-b]pyridazine-3-carbonitrile]	4.4	0.85			
C[C@H](C#N)Nc1cc(-c2ccc3cc(C#N)cnn23)ncc1-c1nnc(N2CCC(C)(O)CC2)s1 [Example 180, (R)-7-(4-((1-cyanoethyl)amino)-5-(5-(4-hydroxy-4-methylpiperidin-1-yl)-1,3,4-thiadiazol-2-yl)pyridin-2-yl)pyrrolo[1,2-b]pyridazine-3-carbonitrile]	6.8	0.4			
CC(C)Nc1cc(-c2ccc3cc(C#N)cnn23)ncc1-c1nnc(N2CC3(CCC(C)(O)CC3)C2)s1 [Example 82, 7-(5-(5-(7-hydroxy-7-methyl-2-azaspiro[3.5]nonan-2-yl)-1,3,4-thiadiazol-2-yl)-4-(isopropylamino)pyridin-2-yl)pyrrolo[1,2-b]pyridazine-3-carbonitrile]	23.1	1.18			
CC(=O)NC1CC2CC1CC2c1nnc(-c2cnc(-c3ccc4cc(C#N)cnn34)cc2NC(C)C)s1 (stereo not shown) [Example 285, N-(5-(5-(6-(3-cyanopyrrolo[1,2-b]pyridazin-7-yl)-4-(isopropylamino)pyridin-3-yl)-1,3,4-thiadiazol-2-yl)bicyclo[2.2.1]heptan-2-yl)acetamide]	68	0.78			
CC(=O)NC[C@H]1CCCN1C(=O)c1nnc(-c2cnc(-c3ccc4cc(C#N)cnn34)cc2NC(C)C)s1 [Example 42, (R)-N-((1-(5-(6-(3-cyanopyrrolo[1,2-b]pyridazin-7-yl)-4-(isopropylamino)pyridin-3-yl)-1,3,4-thiadiazole-2-carbonyl)pyrrolidin-2-yl)methyl)acetamide]	35.7	1.5			
CC1(O)CCN(c2nnc(-c3cnc(-c4ccc5cc(C#N)cnn45)cc3NC3(C)COC3)s2)CC1 [Example 181, 7-(5-(5-(4-hydroxy-4-methylpiperidin-1-yl)-1,3,4-thiadiazol-2-yl)-4-((3-methyloxetan-3-yl)amino)pyridin-2-yl)pyrrolo[1,2-b]pyridazine-3-carbonitrile]	18.4	0.36			
CC(=O)N[C@@H]1CCN(c2nnc(-c3cnc(-c4ccc5cc(C#N)cnn45)cc3NC(C)C)s2)C1 [Compound 330, (R)-N-(1-(5-(6-(3-cyanopyrrolo[1,2-b]pyridazin-7-yl)-4-(isopropylamino)pyridin-3-yl)-1,3,4-thiadiazol-2-yl)pyrrolidin-3-yl)acetamide]	47.1	1.8			
CC(=O)N[C@@H]1C[C@H]2C[C@@H]1CN2c1nnc(-c2cnc(-c3ccc4cc(C#N)cnn34)cc2NC(C)C)s1 [Example 73, N-((1R,4R,5R)-2-(5-(6-(3-cyanopyrrolo[1,2-b]pyridazin-7-yl)-4-(isopropylamino)pyridin-3-yl)-1,3,4-thiadiazol-2-yl)-2-azabicyclo[2.2.1]heptan-5-yl)acetamide]	64.1	0.61			
CC(=O)N1CCC2(CC1)CN(c1nnc(-c3cnc(-c4ccc5cc(C#N)cnn45)cc3NC3COC3)s1)C2 [Example 75, 7-(5-(5-(7-acetyl-2,7-diazaspiro[3.5]nonan-2-yl)-1,3,4-thiadiazol-2-yl)-4-(oxetan-3-ylamino)pyridin-2-yl)pyrrolo[1,2-b]pyridazine-3-carbonitrile]	3.2	0.24			

Reference: patent US11702414B2, “Thiadiazole IRAK4 inhibitors” (Gilead Sciences, Inc., priority 2018, dated 2023)
